Test results from paper PMC12378234, “Enzyme-mediated aminoglycoside resistance without target mimicry” (Communications Chemistry, 2025).
Values after ≈ are worked out from the molar mass of the structure shown. Values joined by “and” are separate entries in the source; they are usually repeats but may differ in a detail not shown here. Equal values may be shown once. Read-outs that look alike come from different tables or passages of the source.

Legend:
[1] = target: AAC(3)-Ia from Acinetobacter baumannii (Acinetobacter baumannii); test: crystal structure; AAC(3)-Ia with CoASH, with or without sisomicin; sitting-drop vapor diffusion at 22 °C, 0.1 M Tris pH 8.5, 0.05 M MgCl2, 20% EtOH, 35% PEG 400; one protomer per asymmetric unit, dimer by crystallographic symmetry
[2] = tested on: CNC(C)C1CCC(N)C(OC2C(N)CC(N)C(OC3OCC(C)(O)C(NC)C3O)C2O)O1; test: purified protein, by the assay type; settings: other: AAC(3)-IIIa, 22 °C, pH 6.5, 150 μM acetyl coenzyme A, n = 3
Experimental: The acetylation of aminoglycosides was measured by a coupled assay, where the formation of pyridine-4-thiolate can be detected at 324 nm[42],[43]. The kinetic assays were performed at room temperature (22 °C) in quartz cuvettes (pathlength 1 cm) at a final volume of 0.8 mL. Reaction solution contained 25 mM MOPS pH 6.5, 100 mM NaCl, 500 μM 4,4’-dipyridyl disulfide (Aldrithiol™-4, Sigma-Aldrich), 150 μM acetyl coenzyme A, and aminoglycoside concentrations varying from 1.25 to 160 μM. […] All reactions were run in triplicate, and data analysis was performed using GraphPad5 software. One-way ANOVA and Tukey’s multiple comparison tests were used to determine the statistical significance of catalytic efficiencies.

[3] = target: AAC(3)-XIa from Corynebacterium striatum (Corynebacterium striatum); test: crystal structure; AAC(3)-XIa partial-apo, with AcCoA, or with CoASH/AcNHCoA and an aminoglycoside; sitting-drop vapor diffusion at 22 °C, 0.1 M trisodium acetate pH 4.6, 10–30% MPD, 0–24% PEG 200; both protomers of the dimer in the asymmetric unit
[4] = tested on: empty pUCP18 vector transformed E. coli; test: Antibiotic susceptibility testing, endpoint MIC assay; assay type: cell-based; settings: Escherichia coli; empty pUCP18 vector control E. coli; after 20 h of growth; read-out: Endpoint minimum inhibitory concentration (MIC)
Experimental: (§1) Ten milliliters of cultures of LB containing […] ampicillin were inoculated from glycerol stocks of transformed BL21(DE3) E. coli containing genes expressing the proteins of interest in pUCP18 vectors. Experiments were performed using 6xHis-tagged fusion-proteins, as well as untagged wild-type proteins. These cultures were incubated at 37 °C with 200 rpm agitation for 16 h. Turbidity was measured through OD600 with a NanoDrop OneC Spectrometer (Thermo Scientific). From the initial cultures, secondary 10 mL cultures were prepared with OD600 values of 0.1. These cultures were grown until OD600 values of 0.4–0.6 were reached and diluted to bring all cultures to the same OD600. Cultures were induced with 1 mM Isopropyl β-D-1-thiogalactopyranoside and incubated for 4 h. Cultures were diluted to 1 × 10^6 cells mL^−1. Two microliters of culture was added to 198 μL of LB with an appropriate aminoglycoside titration concentration. The formulated 96-well culture plate (Sarstedt) was incubated at 37 °C with 120 rpm orbital agitation. The remainder of the bacterial culture was immediately lysed and processed for Western blotting. OD600 was measured after 20 h using the Molecular Devices Spectra MAX 190 plate reader.

[5] = tested on: BL21(DE3) E. coli transformed with pUCP18 vector expressing AAC(3)-IIIa; test: as above; assay type: cell-based; settings: Escherichia coli, 20 h, read-out: Endpoint minimum inhibitory concentration (MIC)
Experimental: as §1

[6] = tested on: BL21(DE3) E. coli transformed with pUCP18 vector expressing AAC(3)-Ia; test: as above; assay type: cell-based; settings: Escherichia coli, 20 h, read-out: Endpoint minimum inhibitory concentration (MIC)
Experimental: as §1

[7] = tested on: BL21(DE3) E. coli transformed with pUCP18 vector expressing AAC(3)-XIa; test: as above; assay type: cell-based; settings: Escherichia coli, 20 h, read-out: Endpoint minimum inhibitory concentration (MIC)
Experimental: as §1

[8] = tested on: BL21(DE3) E. coli transformed with pUCP18 vector expressing untagged AAC(3)-IIIa; assay type: cell-based; settings: E. coli expressing AAC(3)-IIIa
Experimental: (§2) Ten milliliters of LB containing […] ampicillin were inoculated from glycerol stocks of transformed BL21(DE3) E. coli containing genes expressing the proteins of interest in pUCP18 vectors. These cultures were incubated at 37 °C with 200 rpm agitation for 16 h. Turbidity was measured through OD600 with a NanoDrop OneC Spectrometer (Thermo Scientific). From the initial cultures, secondary 10 mL cultures were prepared with OD600 values of 0.1. These cultures were grown until OD600 values of 0.4–0.6 were reached and diluted to bring all cultures to the same OD600. Cultures were induced with 1 mM Isopropyl β-D-1-thiogalactopyranoside and incubated for 4 h. Two microliters of culture was added to 198 μL of LB with an appropriate aminoglycoside titration concentration. Each titration point was repeated n = 4 times. The formulated 96-well culture plate (Sarstedt) had OD600 measured on a 20-min interval over 17 h using a BioTek Cytation 5 Cell Imaging Multimode Reader, incubating at 37 °C with 282 cpm orbital agitation. Experiments were repeated with fresh cultures on separate days to ensure consistent trends. Data was analyzed in Microsoft Excel and GraphPad5. The remainder of the culture immediately had its RNA isolated for qPCR experiments.

[9] = tested on: BL21(DE3) E. coli transformed with pUCP18 vector expressing untagged AAC(3)-XIa; assay type: cell-based; settings: E. coli expressing AAC(3)-XIa
Experimental: as §2

[10] = tested on: BL21(DE3) E. coli transformed with pUCP18 vector expressing untagged AAC(3)-Ia; assay type: cell-based; settings: E. coli expressing AAC(3)-Ia
Experimental: as §2

AAC(3)-XIa = AAC(3)-XIa (Corynebacterium striatum, UniProt A0ABX7DED9); test: Isothermal titration calorimetry; assay type: binding; settings: 25 °C, with coenzyme A, n = 3
Experimental: (§3) To accurately measure protein ligand interactions, the concentration of our proteins of interest was measured spectrophotometrically using the NanoDrop OneC Spectrometer (Thermo Scientific). ITC experiments were performed on a MicroCal iTC 200 (General Electric) at 25 °C with stirring at 750 rpm. Unique buffer solutions were used for each enzyme. AAC(3)-Ia was prepared in 50 mM HEPES, pH 7, and 150 mM NaCl. AAC(3)-IIIa was prepared in 120 mM Tris, pH 7.5, and 150 mM NaCl. AAC(3)-XIa was prepared in 20 mM Tris, pH 7.5, and 150 mM NaCl. The cell contained 550 μM AAC(3)-Ia, 350 μM AAC(3)-IIIa, or 450 μM AAC(3)-XIa. All experiments also contained 5000 μM of coenzyme A trilithium salt in the cell. […] In all ITC experiments, aminoglycosides were prepared in the same buffering solution as the target protein. The ligands were injected 29 times ([…] per injection) with a 180 s interval between injections. Results were analyzed using ORIGIN software version 7E (MicroCal) using the molecular weight of a single protomer of each protein and fitted with a two-set of sites binding model (Supplementary Fig. 5). Data analysis was performed in Microsoft Excel and GraphPad5 software. One-way ANOVA and Tukey’s multiple comparison tests were used to determine the statistical significance of binding affinities.

AAC(3)-Ia = AAC(3)-Ia (Acinetobacter baumannii, UniProt D7R512); test: Isothermal titration calorimetry; assay type: binding
Experimental: as §3

AAC(3)-IIIa = target: T1, AAC(3)-IIIa (Pseudomonas aeruginosa, UniProt P29808); test: Isothermal titration calorimetry; assay type: binding, P. aeruginosa
T1 construct: 6xHis-tag (thrombin-cleavable, pET15b) (N); made in house; host or cells: LOBSTR E. coli
Experimental: as §3

[11] = tested on: CNC(C)C1CCC(N)C(OC2C(N)CC(N)C(OC3OCC(C)(O)C(NC)C3O)C2O)O1; test: Michaelis-Menten kinetics, coupled acetylation assay (pyridine-4-thiolate at 324 nm); assay type: biochemical, Corynebacterium striatum; settings: other: AAC(3)-XIa, 22 °C, pH 6.5, 150 μM acetyl coenzyme A, n = 3
Experimental: (§4) The acetylation of aminoglycosides was measured by a coupled assay, where the formation of pyridine-4-thiolate can be detected at 324 nm[42],[43]. The kinetic assays were performed at room temperature (22 °C) in quartz cuvettes (pathlength 1 cm) at a final volume of 0.8 mL. Reaction solution contained 25 mM MOPS pH 6.5, 100 mM NaCl, 500 μM 4,4’-dipyridyl disulfide (Aldrithiol™-4, Sigma-Aldrich), 150 μM acetyl coenzyme A, and aminoglycoside concentrations varying from 1.25 to 160 μM. The reaction was initialized by the addition of AAC(3)-Ia to a final concentration of 0.2 μM, AAC(3)-XIa to a final concentration of 1.94 μM, or AAC(3)-IIIa to a final concentration of 0.4 μM, where UV absorbance was measured over 5 min. All reactions were run in triplicate, and data analysis was performed using GraphPad5 software. One-way ANOVA and Tukey’s multiple comparison tests were used to determine the statistical significance of catalytic efficiencies.

[12] = tested on: CN[C@@H]1[C@@H](O)[C@@H](O[C@@H]2[C@@H](O)[C@H](O[C@H]3OC(CN)=CC[C@H]3N)[C@@H](N)C[C@H]2N)OC[C@]1(C)O; test: as above; assay type: biochemical, Corynebacterium striatum; settings: other: AAC(3)-XIa, 22 °C, pH 6.5, 150 μM acetyl coenzyme A, n = 3
Experimental: as §4

[13] = 6 μg mL^−1 sisomicin, 3 μg mL^−1 gentamicin
[14] = AAC(3)-XIa, second set of sites
[15] = AAC(3)-Ia, first set of sites, 25 °C, with coenzyme A, n = 3
[16] = AAC(3)-Ia, second set of sites, 25 °C, with coenzyme A, n = 3
[17] = first set of sites, 25 °C, with coenzyme A, n = 3
[18] = second set of sites, 25 °C, with coenzyme A, n = 3

AAC(3)-Ia from Acinetobacter baumannii (enzyme)
stoichiometry N [1]: 2

AAC(3)-IIIa (Pseudomonas aeruginosa)
Km [2]: 13 ± 4 µM | kcat [2]: 36 ± 5 s⁻¹ | kcat/Km [2]: 2.7e+06 ± 1.1e+06 M⁻¹ s⁻¹

AAC(3)-XIa from Corynebacterium striatum (enzyme)
stoichiometry N [3]: 2

CNC(C)C1CCC(N)C(OC2C(N)CC(N)C(OC3OCC(C)(O)C(NC)C3O)C2O)O1 (centres unmarked) [Gentamicin, gentamicin]
MIC [4]: 6 µg/mL (≈ 12.6 µM) | MIC [5]: 12 µg/mL (≈ 25.1 µM) | MIC [6]: 6 µg/mL (≈ 12.6 µM) | MIC [7]: 12 µg/mL (≈ 25.1 µM) | Level of resistance relative to empty vector control (OD600 growth curve) [8, 13]: greater level of resistance than the empty vector control | Growth (OD600 growth curve) ([8]; 12 μg mL^−1 antibiotic, 17 h): none of the strains of transformed E. coli were able to grow at all | Level of resistance relative to empty vector control (OD600 growth curve) [9, 13]: greater level of resistance than the empty vector control | Growth (OD600 growth curve) ([9]; 12 μg mL^−1 antibiotic, 17 h): none of the strains of transformed E. coli were able to grow at all | Growth (OD600 growth curve) ([10]; 12 μg mL^−1 antibiotic, 17 h): none of the strains of transformed E. coli were able to grow at all | Level of resistance relative to empty vector control (OD600 growth curve) ([10]; all concentrations tested): unable to outperform the empty vector control in any experiments | TΔS (AAC(3)-XIa; AAC(3)-XIa, first set of sites): -1.38 ± 0.171 kcal/mol | ΔG (AAC(3)-XIa; AAC(3)-XIa, first set of sites): -5.38 ± 2.88 kcal/mol | ΔH (AAC(3)-XIa; AAC(3)-XIa, first set of sites): -6.77 ± 2.87 kcal/mol | N (sites) (AAC(3)-XIa; AAC(3)-XIa, first set of sites, two-set of sites model): 0.28 ± 0.06 sites | N2 (sites) (AAC(3)-XIa; [14]): 0.31 ± 0.05 sites | TΔS 2 (AAC(3)-XIa; [14]): -2.916 ± 1.036 kcal/mol | ΔG 2 (AAC(3)-XIa; [14]): -7.042 ± 1.18 kcal/mol | ΔH 2 (AAC(3)-XIa; [14]): -9.958 ± 0.567 kcal/mol | Kd (AAC(3)-XIa; Kd2, AAC(3)-XIa, second set of sites): 8.5 ± 5.5 µM | Kd (AAC(3)-XIa; Kd, AAC(3)-XIa, first set of sites, two-set of sites model): 6.1 ± 1.8 µM | TΔS (AAC(3)-Ia; [15]): -0.808 ± 0.343 kcal/mol | ΔG (AAC(3)-Ia; [15]): -6.52 ± 0.418 kcal/mol | ΔH (AAC(3)-Ia; [15]): -7.33 ± 0.238 kcal/mol | N (sites) (AAC(3)-Ia; AAC(3)-Ia, first set of sites, two-set of sites model, 25 °C, with coenzyme A, n = 3): 0.49 ± 0.02 sites | N2 (sites) (AAC(3)-Ia; [16]): 0.57 ± 0.02 sites | TΔS 2 (AAC(3)-Ia; [16]): 4.24 ± 0.08 kcal/mol | ΔG 2 (AAC(3)-Ia; [16]): -6.3 ± 0.112 kcal/mol | ΔH 2 (AAC(3)-Ia; [16]): -2.06 ± 0.08 kcal/mol | Kd (AAC(3)-Ia; Kd2, AAC(3)-Ia, second set of sites, 25 °C, with coenzyme A, n = 3): 23.8 ± 0.3 µM | Kd (AAC(3)-Ia; Kd, AAC(3)-Ia, first set of sites, two-set of sites model, 25 °C, with coenzyme A, n = 3): 17.1 ± 3.2 µM | Kd (AAC(3)-Ia; Kd, AAC(3)-Ia, individual replicates, raw data behind Fig. 6): 23.5 µM and 13.4 µM and 14.4 µM | TΔS (AAC(3)-IIIa; [17]): 3.6 ± 0.053 kcal/mol | ΔG (AAC(3)-IIIa; [17]): -6.94 ± 0.077 kcal/mol | ΔH (AAC(3)-IIIa; [17]): -3.34 ± 0.056 kcal/mol | N (sites) (AAC(3)-IIIa; first set of sites, two-set of sites model, 25 °C, with coenzyme A, n = 3): 0.63 ± 0.01 sites | Kd (AAC(3)-IIIa; first set of sites, two-set of sites model, 25 °C, with coenzyme A, n = 3, read-out: Kd): 8.3 ± 0.2 µM | Kd (AAC(3)-IIIa; individual replicates, raw data behind Fig. 6, read-out: Kd): 8 µM and 8.13 µM and 8.7 µM | N2 (sites) (AAC(3)-IIIa; [18]): 0.63 ± 0.01 sites | TΔS 2 (AAC(3)-IIIa; [18]): 5.24 ± 0.043 kcal/mol | ΔG 2 (AAC(3)-IIIa; [18]): -6.69 ± 0.077 kcal/mol | ΔH 2 (AAC(3)-IIIa; [18]): -1.46 ± 0.063 kcal/mol | Kd (AAC(3)-IIIa; second set of sites, 25 °C, with coenzyme A, n = 3, read-out: Kd2): 12.4 ± 0.5 µM

AAC(3)-XIa (Corynebacterium striatum)
Km [11]: 0.8 ± 0.2 µM | kcat [11]: 0.2 ± 0.003 s⁻¹ | kcat/Km [11]: 200000 ± 40000 M⁻¹ s⁻¹ | Km [12]: 6.8 ± 0.7 µM | kcat [12]: 0.4 ± 0.01 s⁻¹ | kcat/Km [12]: 60000 ± 10000 M⁻¹ s⁻¹
